The values that follow come from PMC4699737, “TrpA1 Regulates Defecation of Food-Borne Pathogens under the Control of the Duox Pathway” (PLoS Genetics, 2016).

Assay in all cases: two-electrode voltage clamp, Xenopus oocytes, Hill fit
Common to all, as to assay type: cell-based
Details in all cases: agonist (activation); -60 mV, pH 7.6; currents normalized to 100 ppm NaOCl, steady state
On the technique in general: Two-electrode voltage clamp is typically applied to oocytes expressing channels or transporters.

One assay has as its target T1, TRPA1(B)10a (Drosophila melanogaster, UniProt Q7Z020).
T1 construct: full-length splice isoform, TrpA1 cRNA injected in Xenopus laevis oocytes
T1 sequence (Q7Z020 1-1197): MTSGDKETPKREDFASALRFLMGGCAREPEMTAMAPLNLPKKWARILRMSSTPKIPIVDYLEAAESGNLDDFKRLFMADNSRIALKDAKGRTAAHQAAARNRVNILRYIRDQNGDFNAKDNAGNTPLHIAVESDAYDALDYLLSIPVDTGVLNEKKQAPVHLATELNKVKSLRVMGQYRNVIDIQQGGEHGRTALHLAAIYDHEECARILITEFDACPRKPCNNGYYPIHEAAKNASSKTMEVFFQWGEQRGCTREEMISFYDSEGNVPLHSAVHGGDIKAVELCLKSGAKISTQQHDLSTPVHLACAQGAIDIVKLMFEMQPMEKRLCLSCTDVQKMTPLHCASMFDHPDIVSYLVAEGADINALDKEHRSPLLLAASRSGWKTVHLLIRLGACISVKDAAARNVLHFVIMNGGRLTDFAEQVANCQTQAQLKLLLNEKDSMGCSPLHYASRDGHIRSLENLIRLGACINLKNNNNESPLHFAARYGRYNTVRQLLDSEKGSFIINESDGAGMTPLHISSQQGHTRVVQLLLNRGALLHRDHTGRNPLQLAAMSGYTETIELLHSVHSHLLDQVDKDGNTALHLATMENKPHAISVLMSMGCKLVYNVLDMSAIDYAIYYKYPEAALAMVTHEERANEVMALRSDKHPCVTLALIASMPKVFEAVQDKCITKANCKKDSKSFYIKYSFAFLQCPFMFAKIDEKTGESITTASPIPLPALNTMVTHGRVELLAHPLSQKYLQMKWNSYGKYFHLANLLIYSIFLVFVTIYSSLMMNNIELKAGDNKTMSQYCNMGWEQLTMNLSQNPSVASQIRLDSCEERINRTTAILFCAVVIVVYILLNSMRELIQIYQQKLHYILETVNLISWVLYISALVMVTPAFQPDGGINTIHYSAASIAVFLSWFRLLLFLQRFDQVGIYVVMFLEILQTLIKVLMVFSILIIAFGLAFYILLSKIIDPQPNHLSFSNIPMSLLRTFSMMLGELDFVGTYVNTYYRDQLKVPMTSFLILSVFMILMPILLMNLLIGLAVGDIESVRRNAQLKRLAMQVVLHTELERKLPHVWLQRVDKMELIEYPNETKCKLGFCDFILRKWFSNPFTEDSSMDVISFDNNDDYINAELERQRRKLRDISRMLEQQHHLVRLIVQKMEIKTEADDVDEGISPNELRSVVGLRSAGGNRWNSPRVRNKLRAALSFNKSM

Another assay addresses T2, TRPA1(A)10b (Drosophila melanogaster, UniProt H0USS9).
T2 construct: full-length splice isoform, TrpA1 cRNA injected in Xenopus laevis oocytes
T2 sequence (H0USS9 1-1231): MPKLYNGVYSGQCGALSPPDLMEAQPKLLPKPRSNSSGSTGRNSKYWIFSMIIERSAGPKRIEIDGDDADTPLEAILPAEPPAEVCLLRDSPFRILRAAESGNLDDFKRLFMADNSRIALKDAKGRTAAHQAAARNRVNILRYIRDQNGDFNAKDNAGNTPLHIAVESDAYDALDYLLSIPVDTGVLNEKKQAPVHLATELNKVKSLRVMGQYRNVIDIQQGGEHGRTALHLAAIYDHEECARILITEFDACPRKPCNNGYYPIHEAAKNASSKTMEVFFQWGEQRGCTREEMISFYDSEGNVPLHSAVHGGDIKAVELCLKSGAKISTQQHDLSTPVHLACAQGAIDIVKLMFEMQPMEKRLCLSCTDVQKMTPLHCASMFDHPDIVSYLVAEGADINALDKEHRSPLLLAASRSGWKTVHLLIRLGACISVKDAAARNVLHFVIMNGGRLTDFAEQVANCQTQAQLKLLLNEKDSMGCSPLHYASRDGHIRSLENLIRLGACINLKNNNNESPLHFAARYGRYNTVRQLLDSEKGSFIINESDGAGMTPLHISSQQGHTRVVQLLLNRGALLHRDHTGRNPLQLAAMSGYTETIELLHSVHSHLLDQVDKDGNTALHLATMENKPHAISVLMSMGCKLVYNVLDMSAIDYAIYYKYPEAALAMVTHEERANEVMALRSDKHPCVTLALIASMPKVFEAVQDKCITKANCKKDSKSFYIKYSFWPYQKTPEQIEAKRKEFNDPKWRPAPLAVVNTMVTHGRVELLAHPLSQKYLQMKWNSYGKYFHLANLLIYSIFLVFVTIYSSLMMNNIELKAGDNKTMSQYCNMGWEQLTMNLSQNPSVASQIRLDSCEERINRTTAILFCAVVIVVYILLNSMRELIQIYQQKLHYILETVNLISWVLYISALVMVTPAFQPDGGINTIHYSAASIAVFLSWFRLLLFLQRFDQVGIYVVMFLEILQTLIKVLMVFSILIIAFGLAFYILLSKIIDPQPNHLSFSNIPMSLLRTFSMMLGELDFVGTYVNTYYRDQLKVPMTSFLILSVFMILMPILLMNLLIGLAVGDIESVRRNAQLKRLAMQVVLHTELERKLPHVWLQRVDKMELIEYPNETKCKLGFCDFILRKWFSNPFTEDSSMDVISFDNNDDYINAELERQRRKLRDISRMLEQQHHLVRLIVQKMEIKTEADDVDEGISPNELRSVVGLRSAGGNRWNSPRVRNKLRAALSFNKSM
From the text: two-electrode voltage clamp, Xenopus oocytes, Hill fit on TRPA1(A)10b | The data were fitted to Hill equation to determine EC50s

For another assay, the target named is T3, hsTRPA1 (Homo sapiens, UniProt O75762).
T3 construct: gene TRPA1; full-length, cRNA injected in Xenopus laevis oocytes

In a further assay the target is T4, TRPA1(A)10a (Drosophila melanogaster, UniProt G8IQ59).
T4 construct: full-length splice isoform, TrpA1 cRNA injected in Xenopus laevis oocytes
T4 sequence (G8IQ59 1-1232): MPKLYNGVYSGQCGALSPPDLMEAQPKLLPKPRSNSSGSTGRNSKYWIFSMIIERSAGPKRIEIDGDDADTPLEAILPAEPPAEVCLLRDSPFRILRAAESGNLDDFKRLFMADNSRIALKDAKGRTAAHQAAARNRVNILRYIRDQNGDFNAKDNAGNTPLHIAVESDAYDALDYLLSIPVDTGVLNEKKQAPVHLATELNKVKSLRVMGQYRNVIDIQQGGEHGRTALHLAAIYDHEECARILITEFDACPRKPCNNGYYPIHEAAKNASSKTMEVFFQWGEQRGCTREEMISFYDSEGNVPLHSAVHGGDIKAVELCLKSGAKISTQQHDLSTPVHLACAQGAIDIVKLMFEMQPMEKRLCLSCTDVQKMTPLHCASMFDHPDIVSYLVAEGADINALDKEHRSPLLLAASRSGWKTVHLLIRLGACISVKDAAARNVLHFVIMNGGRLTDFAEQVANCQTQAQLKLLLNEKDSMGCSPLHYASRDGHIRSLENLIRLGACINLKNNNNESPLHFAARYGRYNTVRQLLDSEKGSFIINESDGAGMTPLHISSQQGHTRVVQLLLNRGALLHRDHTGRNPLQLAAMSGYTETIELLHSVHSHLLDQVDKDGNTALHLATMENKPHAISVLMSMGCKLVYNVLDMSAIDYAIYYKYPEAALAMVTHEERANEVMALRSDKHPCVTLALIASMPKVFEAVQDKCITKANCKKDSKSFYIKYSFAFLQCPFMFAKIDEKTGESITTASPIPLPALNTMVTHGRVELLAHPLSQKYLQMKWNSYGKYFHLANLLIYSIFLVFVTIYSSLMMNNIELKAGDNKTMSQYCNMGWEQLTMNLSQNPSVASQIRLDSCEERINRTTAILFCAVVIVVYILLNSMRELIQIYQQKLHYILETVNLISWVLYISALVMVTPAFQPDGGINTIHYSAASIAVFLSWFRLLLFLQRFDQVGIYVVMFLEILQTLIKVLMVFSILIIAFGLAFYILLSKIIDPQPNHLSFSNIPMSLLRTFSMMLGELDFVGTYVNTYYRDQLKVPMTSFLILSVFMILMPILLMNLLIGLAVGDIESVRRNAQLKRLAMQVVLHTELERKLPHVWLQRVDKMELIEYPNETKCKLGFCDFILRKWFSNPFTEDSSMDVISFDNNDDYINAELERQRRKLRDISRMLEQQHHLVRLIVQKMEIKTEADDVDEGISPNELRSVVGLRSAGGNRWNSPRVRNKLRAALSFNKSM

T3 sequence (O75762 whole entry): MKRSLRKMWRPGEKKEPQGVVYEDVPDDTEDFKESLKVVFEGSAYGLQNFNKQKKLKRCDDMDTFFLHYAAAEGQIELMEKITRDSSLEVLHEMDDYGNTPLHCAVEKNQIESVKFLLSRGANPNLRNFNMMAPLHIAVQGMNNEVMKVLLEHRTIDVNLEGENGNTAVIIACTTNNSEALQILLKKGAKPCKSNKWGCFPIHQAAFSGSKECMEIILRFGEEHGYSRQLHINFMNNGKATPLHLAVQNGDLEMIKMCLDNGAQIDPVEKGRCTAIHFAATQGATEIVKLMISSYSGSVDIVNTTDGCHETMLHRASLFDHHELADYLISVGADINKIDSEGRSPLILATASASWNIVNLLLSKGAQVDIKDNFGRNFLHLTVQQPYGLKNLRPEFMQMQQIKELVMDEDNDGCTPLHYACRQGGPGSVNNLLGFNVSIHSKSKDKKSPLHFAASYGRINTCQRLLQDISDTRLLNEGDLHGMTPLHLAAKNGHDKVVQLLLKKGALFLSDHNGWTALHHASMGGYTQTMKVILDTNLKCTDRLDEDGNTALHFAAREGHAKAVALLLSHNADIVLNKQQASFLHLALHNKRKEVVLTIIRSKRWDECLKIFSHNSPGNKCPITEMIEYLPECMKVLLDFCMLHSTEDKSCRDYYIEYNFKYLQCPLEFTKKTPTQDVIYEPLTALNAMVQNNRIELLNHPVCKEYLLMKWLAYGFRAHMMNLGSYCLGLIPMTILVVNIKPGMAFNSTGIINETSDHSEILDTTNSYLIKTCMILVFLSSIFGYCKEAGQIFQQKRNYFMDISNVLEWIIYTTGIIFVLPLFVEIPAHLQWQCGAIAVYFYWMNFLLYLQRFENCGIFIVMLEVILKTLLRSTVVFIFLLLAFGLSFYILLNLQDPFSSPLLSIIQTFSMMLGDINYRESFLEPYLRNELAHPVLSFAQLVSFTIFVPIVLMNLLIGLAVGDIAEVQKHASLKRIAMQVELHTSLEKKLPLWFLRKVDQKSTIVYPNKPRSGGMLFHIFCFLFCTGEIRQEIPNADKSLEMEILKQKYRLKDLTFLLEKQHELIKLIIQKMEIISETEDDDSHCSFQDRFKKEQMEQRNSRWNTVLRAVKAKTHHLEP

On to `OCl` [NaOCl], for which the EC50 on TRPA1(B)10a was determined as 13.2±1.0 ppm; at TRPA1(A)10b it was 1.7±0.7 ppm; on hsTRPA1, 21.1±3.6 ppm; at TRPA1(A)10a, 5.7±0.6 ppm.
